From US20090076278A1, “METHINE DYES AND USES OF THE SAME” (KABUSHIKI KAISHA HAYASHIBARA SEIBUTSU KAGAKU KENKYUJO, priority 2006, published 2009) come the findings set out here.

Format in all cases: physicochemical
Series [1] in a line: Solubility of methine dye in TFP. Particulars: for Solubility: dissolved in 100 ml of TFP at 20° C.; for solubility in TFP (in words): 1.6% by weight in TFP for forming a recording layer. Here is the method: For the methine dyes of the present invention as listed in Table 1, they were respectively dissolved in 100 ml of TFP at 20° C. and, as solubility, measured for the mass of each methine dye. In parallel, conventionally known related compounds represented by Chemical Formulae 65 to 67 were similarly measured for their solubilities.

Series [2] is described as follows: DSC analysis for decomposition point (thermal property). Particulars: DSC analysis of crystal. The source says: As described above, the methine dyes of the present invention have main absorption maxima in the region at wavelengths of longer than 300 nm, usually, at wavelengths of around 350 to 850 nm, and have distinctly high molecular absorption coefficients (may be abbreviated as “ε”) of 1.0×10^5 or more, usually, 1.5×10^5 or more at their absorption maxima, and efficiently absorb the light in such wavelength region. […] As is well known, it is said that the decomposition point and the glass transition point of an organic compound are recognized as important indexes of their thermal stability, i.e., compounds with higher decomposition points and glass transition points tend to have a higher thermal stability. Accordingly, the methine dyes of the present invention can be quite advantageously used as light-absorption materials which absorb the light in the ultra violet and the infrared regions to shield it, or use the light energy of the above regions in various fields of, for example, information recordings, solar energy generations, electric equipments, electric communications apparatuses, optical equipments, clothes, building/bedding/decorating products, health goods, and agricultural materials. The decomposition points of the methine dyes can be determined by conventional […] (abbreviated as “DSC” herein after).
Conventional measurement of the dye for visible absorption spectrum in methanol solution as an absorption property gave a main absorption maximum at a wavelength of about 544 nm (E=1.94×10^5). ^1H-NMR Analysis of the methine dye in dimethyl sulfoxide-d^6 solution gave a chemical shift δ (ppm, TMS) at peaks of 0.15 to 0.32 (2H, m, —CH2—), 0.65 to 0.82 (2H, m, —CH2—), (6H, t, CH3—), 1.23 (6H, t, CH3—), 1.62 (6H, s, CH3—), 1.80 (6H, s, CH3—), 1.87 (6H, s, CH3—), 1.85 to 2.07 (2H, m, —CH2—), 2.70 to 2.90 (2H, m, —CH2—), 3.95 to 4.20 (8H, m, —CH2—), 6.39 (2H, d, —CH═), 6.48 (2H, d, —CH═), 7.51 (2H, t, ArH), 7.59 (2H, t, ArH), 7.61 (2H, d, ArH), 7.66 (2H, t, ArH), 7.75 (2H, d, ArH), 7.78 (2H, t, ArH), 8.01 (4H, t, ArH), 8.13 (4H, t, ArH), 8.16 (2H, d, ArH), 8.24 (2H, d, ArH), and 8.32 (2H, t, —CH═).
On the technique in general: DSC measures the heat that a sample takes up or gives off during a temperature scan.

Series [3] is described as follows: Light tolerance of dye thin membrane under xenon lamp exposure. Particulars: thin membrane on glass substrate; 7.5 kw xenon lamp, two hours, 180 W/m^2; transmittance at absorption maximum wavelength (about 550 nm). Here is the method:
Any one of the methine dyes represented by Chemical Formulae 1 to 3, 8 and 36, obtained by the methods in Examples 4 to 8, was weighed by 15 mg, added to three milliliters of TFP, and dissolved by energizing with ultra sound for five minutes at ambient temperature. The resulting solution was dropped to homogeneity over either side of a polished glass substrate (5 cm×5 cm) by spin coating, and the substrate was rotated at 1,000 rμm for one minute to homogeneously apply the solution over the substrate, and dried by successively blowing hot air and cool air thereunto in this order to form a thin membrane of any one of the methine dyes of the present invention over the glass substrate.
The transmittance (T0) of the methine dyes in the form of a thin layer was measured at their absorption maximum wavelengths (about 550 nm), and a 7.5 kw xenon lamp was installed apart from the glass substrate at a prescribed distance to expose the glass substrate for two hours with an irradiation energy of 180 W/m^2 when measured on the surface of the substrate while blowing cool air thereunto. Thereafter, the transmittance (T) at each of their absorption maximum wavelengths was instantly remeasured, and the residual percentage (%) of each dye was calculated by substituting the measured transmittances T and To Formula 1. In parallel, the thin membranes formed with the related compounds represented by Chemical Formulae 65 to 68 were similarly treated as in the above and respectively measured for their transmittances at their absorption maximum wavelengths.

`CCN1C(=CC=CC2=[N+](CC)c3ccc4ccccc4c3C2(C)CCCCC2(C)C(C=CC=C3N(CC)c4ccc5ccccc5c4C3(C)Cc3ccccc3)=[N+](CC)c3ccc4ccccc4c32)C(C)(Cc2ccccc2)c2c1ccc1ccccc21.F[P-](F)(F)(F)(F)F.F[P-](F)(F)(F)(F)F` (stereo not shown) [Chemical Formula 2] came in with a Solubility in series [1] of 2.68 % by weight. In series [2], the decomposition point result is “about 211 °C”. The “Residual percentage (%) of dye” value in series [3] came to 66%.
In turn, `CCN1C(=CC=CC2=[N+](CC)c3ccc4ccccc4c3C2(C)CCCCC2(C)C(C=CC=C3N(CC)c4ccc5ccccc5c4C34CCCCC4)=[N+](CC)c3ccc4ccccc4c32)C2(CCCCC2)c2c1ccc1ccccc21.F[P-](F)(F)(F)(F)F.F[P-](F)(F)(F)(F)F` (stereo not shown) [Chemical Formula 3] showed a Solubility in series [1] of 2.47 % by weight. Moreover, the decomposition point entry in series [2] is “about 235 °C”. The “Residual percentage (%) of dye” value in series [3] amounted to 64%.
Turning to `CCN1C(=CC=CC2=[N+](CC)c3ccc4ccccc4c3C2(C)CCCCCCC2(C)C(C=CC=C3N(CC)c4ccc5ccccc5c4C3(C)C)=[N+](CC)c3ccc4ccccc4c32)C(C)(C)c2c1ccc1ccccc21.F[P-](F)(F)(F)(F)F.F[P-](F)(F)(F)(F)F` (stereo not shown) [Chemical Formula 8], the Solubility in series [1] was found to be 2.58 % by weight. Moreover, the “Residual percentage (%) of dye” value in series [3] was determined as 75%.
For the compound `CN1C(=CC2=[N+](C)c3ccc4ccccc4c3C2(C)CCCCC2(C)C(C=C3Oc4ccccc4N3C)=[N+](C)c3ccc4ccccc4c32)Oc2ccccc21.[O-][Cl+3]([O-])([O-])[O-].[O-][Cl+3]([O-])([O-])[O-]` (stereo not shown) [Chemical Formula 21], the decomposition point entry in series [2] is “about 285 °C”.
For the compound `C[N+]1=C(C=CNc2ccccc2)C(C)(CCCCC2(C)C(C=CNc3ccccc3)=[N+](C)c3ccc4ccccc4c32)c2c1ccc1ccccc21.[O-][Cl+3]([O-])([O-])[O-].[O-][Cl+3]([O-])([O-])[O-]` (stereo not shown) [Chemical Formula 24], the decomposition point result in series [2] was “about 300 °C”.
Take `CCN1C(=CC=CC2=[N+](C)c3ccc4ccccc4c3C2(C)Cc2ccc(CC3(C)C(C=CC=C4N(CC)c5ccc6ccccc6c5C4(C)Cc4ccccc4)=[N+](C)c4ccc5ccccc5c43)cc2)C(C)(Cc2ccccc2)c2c1ccc1ccccc21.F[P-](F)(F)(F)(F)F.F[P-](F)(F)(F)(F)F` (stereo not shown) [Chemical Formula 36]: the Solubility in series [1] came to 1.66 % by weight. Moreover, in series [2], the decomposition point result is “about 220 °C”. Moreover, the “Residual percentage (%) of dye” value in series [3] is 64%.
Consider `CCN1C(=CC=CC2=[N+](CC)c3ccc4ccccc4c3C2(C)C)C(C)(C)c2c1ccc1ccccc21` [Chemical Formula 65, reference compound], for which the Solubility in series [1] is recorded as 1.10 % by weight. For the same compound, the “Residual percentage (%) of dye” value in series [3] amounted to 73%.
Turning to `CCN1C(=CC=CC2=[N+](CC)c3ccc4ccccc4c3C23CCCCC3)C(C)(C)c2c1ccc1ccccc21` [Chemical Formula 66], in series [1], the “solubility in TFP (in words)” value is “relatively low solubility in TFP” and the Solubility worked out at 0.82 % by weight. Moreover, the “Residual percentage (%) of dye” value in series [3] came out at 58%.
Regarding `CCN1C(=CC=CC2=[N+](CCCCCC[N+]3=C(C=CC=C4N(CC)c5ccc6ccccc6c5C4(C)C)C(C)(C)c4c3ccc3ccccc43)c3ccc4ccccc4c3C2(C)C)C(C)(C)c2c1ccc1ccccc21` [Chemical Formula 67], in series [1], the “solubility in TFP (in words)” value was “relatively low solubility in TFP” and the Solubility came to 0.44 % by weight. In addition, the “Residual percentage (%) of dye” value in series [3] is given as 60%.
For the compound `CCN1C(=CC=CC2=[N+](CC)c3ccc4ccccc4c3C2(C)Cc2ccccc2)C(C)(Cc2ccccc2)c2c1ccc1ccccc21` (stereo not shown) [Chemical Formula 68, reference compound], the “Residual percentage (%) of dye” value in series [3] is given as 50%.
